Assay results published in patent US8981066B2, “Epigenetic mechanisms related to DNA damage and aging” (Buck Institute for Research on Aging, priority 2011, dated 2015).

Tests used:
[1] = test system: meK172meK180 methylated form of H1.0 in hADSC cells; test: H1.0 meK172meK180 methylation and localisation in hADSCs upon bleomycin genotoxic stress (immunostaining, Western blot); type: cell-based, human; conditions: for nuclear meK172meK180 H1 methylation (initial DNA damage response): hADSC, bleomycin 50 μg/ml
Experimental: FIGS. 4A-4C illustrate the dynamics of the meK172meK180 methylation of hi stone H1.0 upon genotoxic stress-induced senescence of human adult stem (hADSC). FIG. 4A: Cells we treated with 50 μg/ml bleomycin for 3 hrs. Drug was replaced with normal DMEM12 media and cells were assessed for ^meK172^meK180 histone H1 methylation and DNA damage γH2AX at different time points (panels A, B, and C) by immunohistochemistry. Cellular senescence was estimated by senescence-associated β-Gal activity (phase-contrast). […] 1, 2, 3—represent samples of three independent hADSCs cultures used in western blot and qPCR experiments.
Cellular senescence is believed to be associated with accumulation of persistent DNA damage and activation of DNA damage response (DDR) pathways. In the DDR pathway, some chromatin modifications seem to play a critical role in marking lesions or recruiting factors involved in repair, thus facilitating the function of repair proteins. The best characterized in this context are histone H2AX and H1 phosphorylation events.

H1.0 gene = H1.0 gene expression in hADSCs (qPCR); type: cell-based, human; conditions: bleomycin-treated hADSCs
Experimental: FIGS. 4A-4C illustrate the dynamics of the meK172meK180 methylation of hi stone H1.0 upon genotoxic stress-induced senescence of human adult stem (hADSC). FIG. 4A: Cells we treated with 50 μg/ml bleomycin for 3 hrs. Drug was replaced with normal DMEM12 media and cells were assessed for ^meK172^meK180 histone H1 methylation and DNA damage γH2AX at different time points (panels A, B, and C) by immunohistochemistry. Cellular senescence was estimated by senescence-associated β-Gal activity (phase-contrast). FIGS. 4B and 4C show the results of Western blots using H1.0 methyl antibodies in crude cellular extracts from human ADSCs treated with Rapamycin (FIG. 4B) or rampamyucin and bleomycin (FIG. 4C). […] However, acute DDR results in transcriptional up regulation of H1.0 gene expression that could be influenced by TOR pathway suppression. 1, 2, 3—represent samples of three independent hADSCs cultures used in western blot and qPCR experiments.
Cellular senescence is believed to be associated with accumulation of persistent DNA damage (Sedelnikova et al. (2008) Aging Cell 7: 89-100; Rodier et al. (2009) Nat. Cell Biol., 11: 973-979) and activation of DNA damage response (DDR) pathways (Wang et al. (2011) Cell Cycle 10: 3016-3030; Sedelnikova et al. (2004) Nat. Cell Biol., 6: 168-170; Herbig et al. (2004) Molecular Cell, 14: 501-513; d'Adda et al. (2003) Nature 426: 194-198). […]

bleomycin
localisation of met H1.0 upon genotoxic-stress induced senescence ([1]; bleomycin-treated hADSCs): eviction of met H1.0 into the cytoplasm | nuclear meK172meK180 H1 methylation (initial DNA damage response) [1]: triggers | nuclear meK172meK180 H1 methylation (initial DNA damage response) ([1]; listed as bleomycine): rapid and robust nuclear H1.0 methylation | H1.0 transcription upon acute DNA damage (H1.0 gene): drastic increase
